# Measurements as given in patent US10966951B2, “Compositions and methods for lowering triglycerides in a subject having reduced kidney function” (Amarin Pharmaceuticals Ireland Limited, priority 2017, dated 2021).
# Assay: Essential fatty acid parameters in plasma, 6-week AAMI study (Example 2)
# Assay type: in vivo, human
# Method: A single-center, 6-week, double-blind, randomized, parallel-group, placebo-controlled, dose-ranging pilot study was performed to evaluate the efficacy, tolerability, and safety of >96% E-EPA in subjects with subjective and objective memory impairment according to generally accepted criteria for Age-Associated Memory Impairment (“AAMI”). The primary objective of the study was to determine the effect of >96% E-EPA 1 g, 2 g, and 4 g daily, compared to placebo, on cognitive performance in subjects with AAMI.
# Ninety-four subjects were randomized into one of six groups: 1 g E-EPA daily (n=23), 2 g E-EPA daily (n=24), 4 g E-EPA daily (n=24), 1 g placebo daily (n=7), 2 g placebo daily (n=8), and 4 g placebo daily (n=8). E-EPA was provided as 500 mg soft gel capsules containing >96% E-EPA and 0.2% dl-α-tocopherol as an antioxidant. Placebo capsules contained 467 mg of liquid paraffin and 0.2% dl-α-tocopherol. Ninety-one subjects completed the study. Two subjects in the 2 g E-EPA group and one subject in the 2 g placebo group discontinued the study.
# Blood samples (10 mL) were collected at Visit 1 (screening) and at Visits 4, 5, and 6. Analysis was performed by MSR Lipid Analysis, Scottish Crop Research Institute, Dundee, UK. The screening sample acted as baseline for the EFA measurements. Lipid was extracted from plasma, serum, and RBC suspensions and converted into fatty acid methyl esters which were analyzed by gas chromatography to give fatty acid profiles as micrograms fatty acid per gram of sample ([…]) and normalized area percent.
# RBC and plasma EFA data were collected at baseline, Day 14, 28, and 42 and summarized by visit for each treatment group. Change from baseline and percent change from baseline were also summarized. ANCOVA comparison of E-EPA dose groups and E-EPA versus placebo was performed.
compound,measurement,setting,value
"CC/C=C\C/C=C\C/C=C\C/C=C\C/C=C\CCCC(=O)OCC [E-EPA, ethyl eicosapentaenoate]","EPA, DPAn-3, and EPA/AA ratio values from baseline to Day 42","plasma and RBC, 1, 2, and 4 g treatment groups",increased substantially
same,"AA Mean change from Baseline, Mean (SD)","plasma, 1 g daily, Day 14",−9.7 (22.20) μg/g
same,"DHA Mean change from Baseline, Mean (SD)","plasma, 1 g daily, Day 14",−6.4 (13.30) μg/g
same,"EPA/AA Mean change from Baseline, Mean (SD)","plasma, 1 g daily, Day 14",0.3 (0.4)
same,"DHA Mean change from Baseline, Mean (SD)","plasma, 1 g daily, Day 28",−6.6 (15.53) μg/g
same,"EPA/AA Mean change from Baseline, Mean (SD)","plasma, 1 g daily, Day 28",0.3 (0.20)
same,"AA Mean change from Baseline, Mean (SD)","plasma, 1 g daily, Day 42",−8.7 (31.35) μg/g
same,"DGLA Mean change from Baseline, Mean (SD)","plasma, 1 g daily, Day 42",−9.4 (9.41) μg/g
same,"DHA Mean change from Baseline, Mean (SD)","plasma, 1 g daily, Day 42",−5.4 (18.17) μg/g
same,"EPA/AA Mean change from Baseline, Mean (SD)","plasma, 1 g daily, Day 42",0.3 (0.24)
same,EPA/AA Baseline Mean (SD),"plasma, 1 g daily",0.2 (0.14)
same,"AA LS Mean, 1 g versus 4 g","plasma, 1 g versus 4 g",4.2 µg/g
same,"DGLA LS Mean, 1 g versus 4 g","plasma, 1 g versus 4 g",3.7 µg/g
same,"DHA LS Mean, 1 g versus 4 g","plasma, 1 g versus 4 g",-0.8 µg/g
same,"EPA/AA LS Mean, 1 g versus 4 g","plasma, 1 g versus 4 g",−0.66
same,"DHA Mean change from Baseline, Mean (SD)","plasma, 2 g daily, Day 14",−5.4 (14.29) μg/g
same,"EPA/AA Mean change from Baseline, Mean (SD)","plasma, 2 g daily, Day 14",0.6 (0.23)
same,"DHA Mean change from Baseline, Mean (SD)","plasma, 2 g daily, Day 28",−8.1 (15.82) μg/g
same,"EPA/AA Mean change from Baseline, Mean (SD)","plasma, 2 g daily, Day 28",0.8 (0.35)
same,"DHA Mean change from Baseline, Mean (SD)","plasma, 2 g daily, Day 42",−6.0 (16.69) μg/g
same,"EPA/AA Mean change from Baseline, Mean (SD)","plasma, 2 g daily, Day 42",0.7 (0.29)
same,EPA/AA Baseline Mean (SD),"plasma, 2 g daily",0.2 (0.12)
same,"DGLA LS Mean, 2 g versus 4 g","plasma, 2 g versus 4 g",2.5 µg/g
same,"DHA LS Mean, 2 g versus 4 g","plasma, 2 g versus 4 g",1.5 µg/g
same,"EPA/AA LS Mean, 2 g versus 4 g","plasma, 2 g versus 4 g",−0.41
same,"EPA/AA Mean change from Baseline, Mean (SD)","plasma, 4 g daily, Day 14",1.1 (0.28)
same,"EPA/AA Mean change from Baseline, Mean (SD)","plasma, 4 g daily, Day 28",1.3 (0.42)
same,"EPA/AA Mean change from Baseline, Mean (SD)","plasma, 4 g daily, Day 42",1.3 (0.45)
same,EPA/AA Baseline Mean (SD),"plasma, 4 g daily",0.2 (0.07)
